Data as given in patent publication US20230310427A1, “NEW THERAPEUTIC USE OF RILPIVIRINE” (UNIVERSITY OF SOUTH AUSTRALIA, priority 2020, published 2023).

How the values were obtained:
[1] = test system: expanded panel of 429 different kinases; test: Kinase profiling, expanded panel; assay type: biochemical; settings: 1 µM
Description: The ability of compounds to inhibit kinases was measured using ADP-Glo^Tm assay kits (Promega, Madison, WI, United States of America) or externally using radioisotope based assays (Reaction Biology Corporation, Malvern, PA, United States of America and Eurofins discovery services, France). The ADP-Glo assay was performed as reported previously (Basnet SK et al., Mol Pharmacol 88(5):935-948, 2015).The assay plate was read for luminescence using Envision multi-label plate reader (PerkinElmer, Waltham, MA, United States of America). Half-maximal inhibition (IC50) values were determined from a plot of percent residual activity versus concentration of test compounds using GraphPad Prism software. Ki values were calculated from IC50 values using the Cheng-Prusoff equation: Ki= IC50/ [1 + ([ATP]/Km ATP)], where [ATP] is the ATP concentration used for the IC50 determination and Km ATP for each kinase is determined from an individual experiment.
In a subsequent kinase profiling experiment, using an expanded panel of 429 different kinases, the inhibitory activity of Rilpivirine was confirmed using a reduced concentration of 1 µM. […] The percent inhibition against Aurora A, PIM1, LYN and YES kinases were 86, 78, 77 and 83% respectively at the concentration of 1 µM of Rilpivirine. The other 424 kinases were inhibited by less than 70 % at this concentration.

A2780 cells = test: Colony formation assay; assay type: cell-based; settings: data not shown
Description: A total of 1000-1500 cells/well were plated on a 6 well plate and allowed to adhere for 6-8 hours. Appropriate concentrations of Rilpivirine were added and then the cells were put back into the incubator for 7-14 days. The medium was changed every 3 days. After the incubation, the cells were washed with 1 ml PBS carefully. Cells were then fixed with 1 % Formaldehyde and stained with crystal violet. Colonies were counted with >50 cells by eye and images were taken using a camera fitted with microscope.

[2] = test system: auto-phosphorylation of Aurora A at Thr288 in HL-60 cells; test: Western blot, Aurora A auto-phosphorylation; assay type: cell-based; settings: 24 hour, 5 µM, 10 µM and 20 µM
Description: (§1) For Western blotting, cells (8×10^5) were seeded in a culture dish with 10 mL medium and incubated overnight at 37° C., 5% CO2. Untreated and compound-treated cells were lysed using phosphate lysis buffer and protease inhibitors. The protein concentration of each sample was determined by Bio-Rad DC™ protein assay (Bio-Rad Laboratories, Hercules, CA, United States of America). The protein was deactivated at 95° C. for 5 min and then resolved on 4-20% polyacrylamide gels by electrophoresis. Proteins were transferred to polyvinylidene difluoride (PDVF) membrane and blocked for 1 h with 10% skimmed milk (SM) in Tris-buffered saline and Tween (TBST). After adding primary antibody, the membranes were incubated overnight on a rocker in a 4° C. cold room. The following day, membranes were washed in TBST (4×20 min), incubated for at least 1 h at room temperature with the appropriate horseradish peroxidase conjugated secondary antibody. Following this, the blots were washed with TBST (4×20 min) again. The blots were then treated with Western blotting detection reagent and the band intensity was determined using a Bio-Rad ChemiDoc™ MP imaging system (Bio-Rad Laboratories). All the antibodies used for protein detection were from Cell Signaling Technology (Danvers, MA, United States of America). […]

[3] = test system: auto-phosphorylation of Aurora A at Thr288 in NB4 cells; test: Western blot, Aurora A auto-phosphorylation; assay type: cell-based; settings: 24 hour, 5 µM, 10 µM and 20 µM
Description: as §1

percent inhibition of the other 424 kinases [1]: less than 70%
kinase selectivity ([1]; panel of 429 kinases): selective inhibitor of Aurora A
Structure (SMILES): Cc1cc(/C=C/C#N)cc(C)c1Nc1ccnc(Nc2ccc(C#N)cc2)n1 [Rilpivirine, 4-[[4-[4-[(E)-2-cyanoethenyl]-2,6-dimethylanilino]pyrimidin-2-yl]amino]benzonitrile]
clonogenic survival (A2780 cells): clear inhibition of clonogenic survival
level of auto-phosphorylated Aurora A (Thr288) [2]: marked decrease in the level of auto-phosphorylated protein
level of auto-phosphorylated Aurora A (Thr288) [3]: marked decrease in the level of auto-phosphorylated protein
